The target in one test is PI3K-p110δ (Homo sapiens, UniProt O00329). As to the kind of experiment: Biochemical data, PI3K binding potency, PI3K-p110δ. The source says:
(§1) The following biochemical data have been generated for the exemplified compounds, showing PI3K binding potency.

The next test deals with PI3K-p110β (Homo sapiens, UniProt P42338). As to the kind of experiment: Biochemical data, PI3K binding potency, PI3K-p110β.
Source text: as §1

The next test addresses PI3K-p110γ (Homo sapiens, UniProt P48736). As to the kind of experiment: Biochemical data, PI3K binding potency, PI3K-p110γ.
Source text: as §1

The target of another test is PI3K-p110α (Homo sapiens, UniProt P42336). As to the kind of experiment: Biochemical data, PI3K binding potency, PI3K-p110α.
Chain of PI3K-p110α (P42336 whole entry): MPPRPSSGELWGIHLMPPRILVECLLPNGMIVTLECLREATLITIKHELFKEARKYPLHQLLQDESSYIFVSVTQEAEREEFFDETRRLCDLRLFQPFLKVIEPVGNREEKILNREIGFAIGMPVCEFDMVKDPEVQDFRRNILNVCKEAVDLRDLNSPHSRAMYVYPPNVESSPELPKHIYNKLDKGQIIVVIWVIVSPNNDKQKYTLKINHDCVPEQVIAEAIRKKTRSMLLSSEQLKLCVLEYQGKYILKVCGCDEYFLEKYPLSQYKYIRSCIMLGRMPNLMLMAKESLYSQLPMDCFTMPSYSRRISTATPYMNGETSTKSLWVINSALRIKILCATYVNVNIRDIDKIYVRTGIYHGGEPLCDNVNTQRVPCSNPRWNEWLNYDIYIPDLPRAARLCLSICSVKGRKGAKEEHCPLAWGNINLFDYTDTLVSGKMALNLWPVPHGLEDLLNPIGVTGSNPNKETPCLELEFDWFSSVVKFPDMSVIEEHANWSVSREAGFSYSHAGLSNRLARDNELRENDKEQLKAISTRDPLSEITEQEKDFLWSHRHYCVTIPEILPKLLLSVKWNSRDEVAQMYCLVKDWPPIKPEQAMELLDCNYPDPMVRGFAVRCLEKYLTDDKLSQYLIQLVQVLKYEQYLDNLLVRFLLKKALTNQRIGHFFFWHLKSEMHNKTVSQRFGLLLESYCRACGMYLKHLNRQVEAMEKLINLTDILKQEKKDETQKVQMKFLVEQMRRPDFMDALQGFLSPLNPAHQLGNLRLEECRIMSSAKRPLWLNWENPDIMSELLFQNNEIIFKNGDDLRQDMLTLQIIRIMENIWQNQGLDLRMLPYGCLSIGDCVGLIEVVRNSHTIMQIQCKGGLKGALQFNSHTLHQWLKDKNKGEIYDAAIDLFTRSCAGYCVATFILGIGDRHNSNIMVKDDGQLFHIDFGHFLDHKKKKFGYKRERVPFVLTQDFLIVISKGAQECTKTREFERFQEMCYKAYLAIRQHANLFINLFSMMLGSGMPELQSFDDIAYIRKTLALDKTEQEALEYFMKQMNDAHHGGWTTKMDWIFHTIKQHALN
Chain of PI3K-p110α (P27986 whole entry partner): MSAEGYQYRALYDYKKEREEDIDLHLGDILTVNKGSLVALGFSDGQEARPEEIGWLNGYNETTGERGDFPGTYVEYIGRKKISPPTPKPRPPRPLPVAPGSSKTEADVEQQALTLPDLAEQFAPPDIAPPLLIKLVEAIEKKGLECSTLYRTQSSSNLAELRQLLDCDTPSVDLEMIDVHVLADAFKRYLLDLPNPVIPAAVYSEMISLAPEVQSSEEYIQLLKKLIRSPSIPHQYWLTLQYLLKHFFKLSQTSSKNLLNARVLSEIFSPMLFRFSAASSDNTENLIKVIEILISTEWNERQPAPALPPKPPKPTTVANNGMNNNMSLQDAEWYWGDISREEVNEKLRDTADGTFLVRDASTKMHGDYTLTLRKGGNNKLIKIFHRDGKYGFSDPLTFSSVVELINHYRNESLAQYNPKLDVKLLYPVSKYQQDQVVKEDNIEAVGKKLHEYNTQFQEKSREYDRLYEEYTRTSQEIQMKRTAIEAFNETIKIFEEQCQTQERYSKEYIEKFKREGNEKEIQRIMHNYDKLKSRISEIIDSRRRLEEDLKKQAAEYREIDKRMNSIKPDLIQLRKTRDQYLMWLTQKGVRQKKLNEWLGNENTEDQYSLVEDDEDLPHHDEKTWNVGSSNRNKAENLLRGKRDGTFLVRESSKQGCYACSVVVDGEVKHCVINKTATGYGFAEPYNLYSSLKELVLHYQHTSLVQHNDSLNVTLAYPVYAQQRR
Source text: as §1

The results in this text go back to patent US10035785B2, “Phosphoinositide 3-kinase inhibitors” (Karus Therapeutics Limited, priority 2012, dated 2018).

A word on the IC50: it is the concentration that gives 50% inhibition. A low value points to greater potency.

Chain of PI3K-p110δ (O00329 whole entry): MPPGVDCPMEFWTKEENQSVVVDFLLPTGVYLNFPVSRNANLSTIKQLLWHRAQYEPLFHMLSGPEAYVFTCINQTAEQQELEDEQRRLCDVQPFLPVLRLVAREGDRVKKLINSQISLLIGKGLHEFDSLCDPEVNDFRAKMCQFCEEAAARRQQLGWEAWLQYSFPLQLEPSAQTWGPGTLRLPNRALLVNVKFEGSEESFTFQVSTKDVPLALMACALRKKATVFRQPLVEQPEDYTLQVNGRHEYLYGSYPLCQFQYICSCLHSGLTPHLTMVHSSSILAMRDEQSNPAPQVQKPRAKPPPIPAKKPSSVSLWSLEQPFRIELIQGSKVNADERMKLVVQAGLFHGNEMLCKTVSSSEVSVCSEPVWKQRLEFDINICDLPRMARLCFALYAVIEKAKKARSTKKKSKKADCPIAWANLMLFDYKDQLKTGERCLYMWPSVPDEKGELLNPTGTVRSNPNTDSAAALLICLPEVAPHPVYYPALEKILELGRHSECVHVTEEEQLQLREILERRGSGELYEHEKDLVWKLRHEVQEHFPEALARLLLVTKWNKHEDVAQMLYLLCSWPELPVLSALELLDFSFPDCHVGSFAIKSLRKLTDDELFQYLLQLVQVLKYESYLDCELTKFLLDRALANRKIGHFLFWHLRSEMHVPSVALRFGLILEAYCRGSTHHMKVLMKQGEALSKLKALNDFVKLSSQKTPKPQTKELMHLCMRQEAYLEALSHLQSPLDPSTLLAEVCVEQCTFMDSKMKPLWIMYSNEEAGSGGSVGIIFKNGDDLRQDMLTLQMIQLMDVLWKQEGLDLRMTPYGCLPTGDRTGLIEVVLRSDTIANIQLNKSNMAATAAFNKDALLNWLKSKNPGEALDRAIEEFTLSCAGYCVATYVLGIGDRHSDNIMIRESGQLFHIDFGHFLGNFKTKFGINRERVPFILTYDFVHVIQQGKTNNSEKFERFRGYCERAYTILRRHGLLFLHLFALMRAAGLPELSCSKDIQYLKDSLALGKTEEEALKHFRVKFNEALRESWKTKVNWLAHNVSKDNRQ
Chain of PI3K-p110δ (P27986 whole entry partner): as the sequence (P27986 whole entry partner) above
Chain of PI3K-p110γ (P48736 whole entry): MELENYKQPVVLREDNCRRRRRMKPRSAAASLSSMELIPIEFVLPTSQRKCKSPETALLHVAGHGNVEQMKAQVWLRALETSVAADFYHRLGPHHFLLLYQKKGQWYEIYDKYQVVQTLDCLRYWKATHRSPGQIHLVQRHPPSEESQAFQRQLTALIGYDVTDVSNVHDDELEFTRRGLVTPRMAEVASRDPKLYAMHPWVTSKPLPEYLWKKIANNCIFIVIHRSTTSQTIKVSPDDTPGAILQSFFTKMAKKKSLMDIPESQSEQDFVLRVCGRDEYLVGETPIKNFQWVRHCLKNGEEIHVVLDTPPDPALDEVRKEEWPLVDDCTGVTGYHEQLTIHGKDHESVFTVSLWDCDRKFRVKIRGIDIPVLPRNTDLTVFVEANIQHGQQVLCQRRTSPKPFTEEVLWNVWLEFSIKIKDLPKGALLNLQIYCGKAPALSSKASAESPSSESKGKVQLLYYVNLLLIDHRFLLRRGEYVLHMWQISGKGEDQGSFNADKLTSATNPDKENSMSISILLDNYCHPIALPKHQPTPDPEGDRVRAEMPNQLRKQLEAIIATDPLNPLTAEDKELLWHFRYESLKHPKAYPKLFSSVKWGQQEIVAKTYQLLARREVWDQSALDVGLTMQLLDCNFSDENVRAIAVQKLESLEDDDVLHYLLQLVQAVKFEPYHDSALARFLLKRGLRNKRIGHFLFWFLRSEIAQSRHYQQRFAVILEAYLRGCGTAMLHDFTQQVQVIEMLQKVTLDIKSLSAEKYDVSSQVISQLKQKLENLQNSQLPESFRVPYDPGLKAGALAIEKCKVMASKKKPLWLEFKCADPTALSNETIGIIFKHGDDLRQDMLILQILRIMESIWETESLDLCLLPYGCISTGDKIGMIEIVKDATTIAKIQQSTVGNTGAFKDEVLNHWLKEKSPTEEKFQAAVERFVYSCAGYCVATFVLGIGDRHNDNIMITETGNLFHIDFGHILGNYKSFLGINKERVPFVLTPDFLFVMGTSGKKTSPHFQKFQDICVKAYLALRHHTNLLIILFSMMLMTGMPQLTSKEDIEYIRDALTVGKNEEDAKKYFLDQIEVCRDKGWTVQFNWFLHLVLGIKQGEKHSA
Chain of PI3K-p110β (P42338 whole entry): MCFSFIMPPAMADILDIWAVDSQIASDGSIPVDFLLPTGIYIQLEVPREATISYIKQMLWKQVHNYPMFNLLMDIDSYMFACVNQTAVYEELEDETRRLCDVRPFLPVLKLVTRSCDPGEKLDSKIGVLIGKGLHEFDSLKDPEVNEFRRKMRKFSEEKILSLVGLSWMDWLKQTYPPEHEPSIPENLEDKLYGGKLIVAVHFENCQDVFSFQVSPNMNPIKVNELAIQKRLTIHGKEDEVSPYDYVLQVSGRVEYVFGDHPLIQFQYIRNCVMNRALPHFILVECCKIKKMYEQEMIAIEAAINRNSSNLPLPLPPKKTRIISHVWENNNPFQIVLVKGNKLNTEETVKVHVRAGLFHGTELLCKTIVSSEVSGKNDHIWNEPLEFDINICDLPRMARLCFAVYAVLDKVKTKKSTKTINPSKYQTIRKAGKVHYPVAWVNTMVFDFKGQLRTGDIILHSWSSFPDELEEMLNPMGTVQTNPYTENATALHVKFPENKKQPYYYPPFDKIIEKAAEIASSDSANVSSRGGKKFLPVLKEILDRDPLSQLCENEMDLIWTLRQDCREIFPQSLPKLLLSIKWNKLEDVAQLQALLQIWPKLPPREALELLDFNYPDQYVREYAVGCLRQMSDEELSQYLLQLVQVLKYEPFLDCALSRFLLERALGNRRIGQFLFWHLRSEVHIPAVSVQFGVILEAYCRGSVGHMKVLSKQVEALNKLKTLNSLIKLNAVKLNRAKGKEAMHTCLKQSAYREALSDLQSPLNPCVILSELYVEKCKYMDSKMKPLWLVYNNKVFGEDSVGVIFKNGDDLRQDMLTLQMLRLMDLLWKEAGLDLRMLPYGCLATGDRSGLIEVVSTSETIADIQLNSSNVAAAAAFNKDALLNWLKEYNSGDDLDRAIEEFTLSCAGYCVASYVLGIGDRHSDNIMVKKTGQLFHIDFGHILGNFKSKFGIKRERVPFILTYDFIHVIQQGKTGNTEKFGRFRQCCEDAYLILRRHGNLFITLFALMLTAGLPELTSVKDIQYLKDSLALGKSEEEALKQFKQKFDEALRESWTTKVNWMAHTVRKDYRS
Chain of PI3K-p110β (P27986 whole entry partner): as the sequence (P27986 whole entry partner) above

At PI3K-p110δ, `O=C(CCCN1CCCC1)Nc1cc(-c2cccc3[nH]ccc23)nc(N2CCOCC2)c1` [C, N-[2-(1H-Indol-4-yl)-6-morpholin-4-yl-pyridin-4-yl]-4-pyrrolidin-1-yl-butyramide] displayed an IC50 of 953 nM.

As for `CN(C)CCCC(=O)Nc1cc(-c2cccc3[nH]ccc23)nc(N2CCOCC2)c1` [B, 4-Dimethylamino-N-[2-(1H-indol-4-yl)-6-morpholin-4-yl-pyridin-4-yl]-butyramide], the IC50 at PI3K-p110β is 247 nM; at PI3K-p110γ, not below 10000 nM; on PI3K-p110δ it was 177 nM; on PI3K-p110α, not below 10000 nM.
